Source: US5204345A, “6-epifumagillols and the pharmaceutical use thereof” (Takeda Chemical Industries, Ltd., priority 1989, dated 1993)
Values after ≈ are worked out from the molar mass of the structure shown. Where two headings read alike, the source gives them in different places. Each block holds one compound with its values, some of them ahead of it.

Columns and labels:
[1] = tested on: bFGF-induced angiogenesis; test: rat cornea micropocket method, angiogenesis inhibitory activity; format: in vivo, rat (Sprague-Dawley); conditions: number of rats with angiogenesis inhibitory activity relative to number tested; sample 20 ug pellet, bFGF 250 ng, 10 days
Experimental: The object compounds (I) obtained in the Examples given below were evaluated for angiogenesis inhibitory activity by the rat cornea micropocket method. Method of Evaluation:
Essentially the same method of Gimbrone et al. [J. National Cancer Institute, 52, 413-419 (1974)] was followed. Thus, adult male Sprague-Dawley rats (11 to 16 week old) were anesthetized with nembutal and locally anesthetized by instillation of xylocaine eyedrops onto the eyeball. The cornea was incised to a length of about 2 mm at about 2 mm inside from the corneal circumference by means of an injection needle, and a basic fibroblast growth factor (bFGF; bovine brain-derived, purified product; R & D Inc.) and a sustained release pellet containing the test sample were inserted side by side into the incision so that the bFGF pellet was located on the central side in the cornea. In the control group, the bFGF pellet and a sample-free pellet were inserted into the cornea. After 10 days, the cornea was observed under a stereoscopic microscope.
The sustained release pellets were prepared in the following manner. An ethylene-vinyl acetate copolymer (Takeda Chemical Industries, Ltd.) was dissolved in dichloromethane to a concentration of 8%. A 3 μl portion of the solution was air-dried on a glass dish, an aqueous solution of bFGF (250 ng) was then placed thereon and air-dried and, finally 3 μl of the above ethylene-vinyl acetate copolymer solution was placed further thereon and air-dried to give a sandwich sheet. This sandwich sheet was made round into a bFGF pellet. The test sample pellets were prepared by dissolving each sample in ethanol in a concentration of 20 ug/2 μl, mixing the solution with 6 μl of an ethylene-vinyl acetate copolymer solution, air-drying the mixed solution in a glass dish and making the thus-obtainedsheet round.
In the Table 1 above, the inhibitory rate means the number of rats on which angiogenesis inhibitory activity was observed relative to the number of rats tested.

[2] = tested on: human umbilical vein endothelial cells; test: inhibition of human umbilical vein endothelial cell growth (MTT); format: cell-based; conditions: 120 h, rFGF 2 ng/ml, 5-day culture, MTT OD590, read-out: IC50, inhibiting endothelial cell growth
Experimental: Evaluation of inhibition of human umbilical vein endothelial cell growth
Human umbilical vein endothelial cells were isolated by perfusion of an umbilical vein with a trypsin-containing medium. The cells were cultured in sequence in GIT medium (Daigo Eiyo Kagaku) supplemented with 2.5% fetal bovine serum and 2.0 ng/ml or recombinant human fibroblast growth factor (hereinafter simply referred to rFGF, prepared at Biotechnology Research Laboratories, Takeda Chemical Industries, Ltd.).
A suspension of human vein endothelial cells at the cell density of 2×10^3 (100 μl) was seeded on 96-well incubation plate (Nunc, 1-67008), and incubation was conducted in a gas-controlled thermostat vessel. The following day, 100 μl of medium containing rFGF (2 ng/ml at the final concentration) and samples of various concentrations were added. […] After 5-day culture, the culture solution containing samples was removed by suction, 100 μl of 1 mg/ml of MTT solution [3-(4,5-dimethyl-2-thiazolyl)-2,5-diphenyl-2H-tetrazolium bromide was dissolved in the culture solution] was added and kept warm it about 40° C. for 4 hours. Then, 100 μl of a 10% SDS solution (aqueous solution of sodium dodecyl sulfate) was added, and the mixture was kept warming for 5-6 hours. The cells and MTT pigment were solubilized, and the OD590 value was measured using a spectrophotometer.

[3] = tested on: spleen cells from BALB/c and C57BL/6 mice; test: 3H-thymidine uptake induced by the mixed lymphocyte reaction of spleen cells; format: cell-based, mouse (BALB/c and C57BL/6); conditions: Mus musculus, in vitro
[4] = tested on: T cell dependent immunoglobulin production; test: antibody production induced by pokeweed mitogen (T cell dependent B cell mitogen); format: cell-based; conditions: in vitro
Excerpt: (§1) The effects of compounds 5 and 8 on the antibody production induced by pokeweed mitogen, a T cell dependent B cell mitogen, and Epstein Barr virus, a T cell independent B cell mitogen, were examined.

[5] = tested on: T cell independent antibody production; test: antibody production induced by Epstein Barr virus (T cell independent B cell mitogen); format: cell-based; conditions: in vitro
Excerpt: as §1

[6] = tested on: anti-bovine gamma globulin antibody titer; test: anti-bovine gamma globulin antibody titer in immunized mice; format: in vivo, mouse (BALB/c); conditions: for Anti-bovine gamma globulin antibody titer, suppression: 20 mg/kg i.p. every 2 days, sera 3 weeks after immunization, words; for Anti-bovine gamma globulin Ab titer: percentage against reference group injected with saline, compounds 5 and 8: 20 mg/kg i.p. every 2 days, 3 weeks
Experimental: Anti-bovine gamma globulin antibody titer was assayed in sera obtained 3 weeks after the immunization.

[7] = tested on: germinal center formation and plasma cell induction in the spleen; test: histological study in the spleen of mice immunized with sheep red blood cells; format: in vivo, mouse (BALB/c); conditions: compounds 5 and 8: 100 mg/kg i.p. once a day for 4 days; day 6 after immunization; words
[8] = thymus and spleen weight; format: in vivo, mouse (BALB/c); conditions: for Spleen weight / Thymus weight: percentage against reference group injected with saline; for reduction of spleen weight: words
Experimental: and spleen were represented as percentages against those of a reference
group which were injected with saline.

[9] = Lymphocyte, Table 3, read-out: Mixed lymphocyte reaction, concentration which showed 50% inhibition
[10] = mixed lymphocyte reaction, read-out: 50% inhibition of 3H-thymidine uptake, concentration
[11] = Table 3, read-out: T dependent Ab production, concentration which showed 50% inhibition
[12] = pokeweed mitogen, read-out: 50% suppression of T cell dependent immunoglobulin production, concentration
[13] = Epstein Barr virus, read-out: 50% suppression of T cell independent antibody production, concentration
[14] = Table 3, read-out: T independent Ab production, concentration which showed 50% inhibition

Structure (SMILES): CO[C@@H]1[C@@H](O)CC[C@]2(CO2)[C@H]1[C@@]1(C)O[C@@H]1CC=C(C)C [Example 2, 6-epifumagillol]
Inhibitory Rate [1]: 3/7
IC50 [2]: < 0.08 ng/mL

Structure (SMILES): CO[C@@H]1[C@@H](OS(C)(=O)=O)CC[C@]2(CO2)[C@H]1[C@@]1(C)O[C@@H]1CC=C(C)C [Example 12, 6-O-methanesulfonyl-6-epifumagillol]
Inhibitory Rate [1]: 3/4
IC50 [2]: 6.5 ng/mL (≈ 18 nM)

IC50 [3, 9]: 400 nM
IC50 [3, 10]: 10 nM
IC50 [5, 13]: 1 nM
IC50 [5, 14]: 1 nM
Structure (SMILES): CO[C@@H]1[C@@H](OC(=O)Oc2ccccc2)CC[C@]2(CO2)[C@H]1[C@@]1(C)O[C@@H]1CC=C(C)C [Example 8, 6-O-phenoxycarbonyl-6-epifumagillol]
Inhibitory Rate [1]: 5/7
IC50 [2]: 0.166 ng/mL (≈ 0.412 nM)
IC50 [4, 11]: 4000 nM
IC50 [4, 12]: 4000 nM
Anti-bovine gamma globulin antibody titer, suppression [6]: significant suppression
Anti-bovine gamma globulin Ab titer [6]: 9%
formation of germinal center in the spleen [7]: suppressed the formation of germinal center
induction of plasma cells in the spleen [7]: suppressed
Spleen weight [8]: 60%
Thymus weight [8]: 116%
reduction of spleen weight [8]: reduction of spleen weight was observed

Structure (SMILES): CO[C@@H]1[C@@H](OC(N)=O)CC[C@]2(CO2)[C@H]1[C@@]1(C)O[C@@H]1CC=C(C)C [Example 9, 6-O-carbamoyl-6-epifumagillol]
IC50 [2]: 0.1 ng/mL (≈ 0.307 nM)

Structure (SMILES): CO[C@@H]1[C@@H](OC(=O)CCC(=O)O)CC[C@]2(CO2)[C@H]1[C@@]1(C)O[C@@H]1CC=C(C)C [Example 7, 6-O-(3-carboxypropionyl)-6-epifumagillol]
Inhibitory Rate [1]: 5/6
IC50 [2]: 8.71 ng/mL (≈ 22.8 nM)

Structure (SMILES): CO[C@@H]1[C@@H](OC)CC[C@]2(CO2)[C@H]1[C@@]1(C)O[C@@H]1CC=C(C)C [Example 3, 6-O-methyl-6-epifumagillol]
IC50 [2]: 9.82 ng/mL (≈ 33.1 nM)

Structure (SMILES): CO[C@@H]1[C@@H](OC=O)CC[C@]2(CO2)[C@H]1[C@@]1(C)O[C@@H]1CC=C(C)C [Example 1, 6-O-formyl-6-epifumagillol]
Inhibitory Rate [1]: 3/7
IC50 [2]: < 0.08 ng/mL

IC50 [3, 9]: 300 nM
IC50 [3, 10]: 300 nM
IC50 [5, 13]: 30 nM
IC50 [5, 14]: 30 nM
Structure (SMILES): CO[C@@H]1[C@@H](OC(C)=O)CC[C@]2(CO2)[C@H]1[C@@]1(C)O[C@@H]1CC=C(C)C [Example 5, 6-O-acetyl-6-epifumagillol]
Inhibitory Rate [1]: 4/8
IC50 [2]: 1.91 ng/mL (≈ 5.89 nM)
IC50 [4, 11]: 7000 nM
IC50 [4, 12]: 7000 nM
Anti-bovine gamma globulin antibody titer, suppression [6]: significant suppression
Anti-bovine gamma globulin Ab titer [6]: 13%
formation of germinal center in the spleen [7]: suppressed the formation of germinal center
induction of plasma cells in the spleen [7]: suppressed
Spleen weight [8]: 57%
Thymus weight [8]: 105%
reduction of spleen weight [8]: reduction of spleen weight was observed

Structure (SMILES): CO[C@@H]1[C@@H](OC(=O)N2CCOCC2)CC[C@]2(CO2)[C@H]1[C@@]1(C)O[C@@H]1CC=C(C)C [Example 11, 6-O-morpholinocarbonyl-6-epifumagillol]
IC50 [2]: 4.68 ng/mL (≈ 11.8 nM)

Structure (SMILES): CO[C@@H]1[C@@H](OC(=O)c2ccccc2)CC[C@]2(CO2)[C@H]1[C@@]1(C)O[C@@H]1CC=C(C)C [Example 6, 6-O-benzoyl-6-epifumagillol]
Inhibitory Rate [1]: 6/6
IC50 [2]: 2.05 ng/mL (≈ 5.3 nM)
